We go through eight compounds from US10344060B2 (priority 2013, dated 2019).

Common to all, as to experiment: cell-based
For test [1], the target named is T1, hNav1.5 (Homo sapiens, UniProt Q14524). The settings on record: Table 12; ratio of PX tonic IC50 values.
In test [2] the target is T2, hNav1.4 (Homo sapiens, UniProt P35499). It is filed as cell-based. The following applies: Table 12; ratio of PX tonic IC50 values.
In test [3] the target is T3, hNav1.7 (Homo sapiens, UniProt Q15858). The settings on record: read-out: IC50 (μM) Nav1.7.
Test [4] has as its target T1, hNav1.5. The following applies: IonWorks Quattro; Table 6; read-out: IC50 (μM) Nav1.5.
The target in test [5] is T2, hNav1.4. Format: cell-based. The settings on record: Table 6; for IC50: IonWorks Quattro, read-out: IC50 (μM) Nav1.4; for Nav1.4/Nav1.7: ratio of IonWorks Quattro IC50 values.
Another test addresses hNav1.3 (Homo sapiens, UniProt Q9NY46). The settings on record: IonWorks Quattro; Table 6; read-out: IC50 (μM) Nav1.3.
The target of a further test is hNav1.6 (Homo sapiens, UniProt Q9UQD0). Format: cell-based. The settings on record: Table 15; for pIC50: read-out: PX hNav1.6 Tonic IC50; for Nav1.6/Nav1.7: ratio of PX tonic IC50 values.
Test [6] has as its target T3, hNav1.7. It is filed as cell-based. The settings on record: for pIC50: Table 15, read-out: PX hNav1.7 Tonic IC50; for Nav1.4/Nav1.7 / Nav1.5/Nav1.7: ratio of PX tonic IC50 values, Table 11.

pIC50: −log10 of the molar value. Read-outs that look alike come from different tables or passages of the source.

Sequence of hNav1.6 (Q9UQD0 whole entry): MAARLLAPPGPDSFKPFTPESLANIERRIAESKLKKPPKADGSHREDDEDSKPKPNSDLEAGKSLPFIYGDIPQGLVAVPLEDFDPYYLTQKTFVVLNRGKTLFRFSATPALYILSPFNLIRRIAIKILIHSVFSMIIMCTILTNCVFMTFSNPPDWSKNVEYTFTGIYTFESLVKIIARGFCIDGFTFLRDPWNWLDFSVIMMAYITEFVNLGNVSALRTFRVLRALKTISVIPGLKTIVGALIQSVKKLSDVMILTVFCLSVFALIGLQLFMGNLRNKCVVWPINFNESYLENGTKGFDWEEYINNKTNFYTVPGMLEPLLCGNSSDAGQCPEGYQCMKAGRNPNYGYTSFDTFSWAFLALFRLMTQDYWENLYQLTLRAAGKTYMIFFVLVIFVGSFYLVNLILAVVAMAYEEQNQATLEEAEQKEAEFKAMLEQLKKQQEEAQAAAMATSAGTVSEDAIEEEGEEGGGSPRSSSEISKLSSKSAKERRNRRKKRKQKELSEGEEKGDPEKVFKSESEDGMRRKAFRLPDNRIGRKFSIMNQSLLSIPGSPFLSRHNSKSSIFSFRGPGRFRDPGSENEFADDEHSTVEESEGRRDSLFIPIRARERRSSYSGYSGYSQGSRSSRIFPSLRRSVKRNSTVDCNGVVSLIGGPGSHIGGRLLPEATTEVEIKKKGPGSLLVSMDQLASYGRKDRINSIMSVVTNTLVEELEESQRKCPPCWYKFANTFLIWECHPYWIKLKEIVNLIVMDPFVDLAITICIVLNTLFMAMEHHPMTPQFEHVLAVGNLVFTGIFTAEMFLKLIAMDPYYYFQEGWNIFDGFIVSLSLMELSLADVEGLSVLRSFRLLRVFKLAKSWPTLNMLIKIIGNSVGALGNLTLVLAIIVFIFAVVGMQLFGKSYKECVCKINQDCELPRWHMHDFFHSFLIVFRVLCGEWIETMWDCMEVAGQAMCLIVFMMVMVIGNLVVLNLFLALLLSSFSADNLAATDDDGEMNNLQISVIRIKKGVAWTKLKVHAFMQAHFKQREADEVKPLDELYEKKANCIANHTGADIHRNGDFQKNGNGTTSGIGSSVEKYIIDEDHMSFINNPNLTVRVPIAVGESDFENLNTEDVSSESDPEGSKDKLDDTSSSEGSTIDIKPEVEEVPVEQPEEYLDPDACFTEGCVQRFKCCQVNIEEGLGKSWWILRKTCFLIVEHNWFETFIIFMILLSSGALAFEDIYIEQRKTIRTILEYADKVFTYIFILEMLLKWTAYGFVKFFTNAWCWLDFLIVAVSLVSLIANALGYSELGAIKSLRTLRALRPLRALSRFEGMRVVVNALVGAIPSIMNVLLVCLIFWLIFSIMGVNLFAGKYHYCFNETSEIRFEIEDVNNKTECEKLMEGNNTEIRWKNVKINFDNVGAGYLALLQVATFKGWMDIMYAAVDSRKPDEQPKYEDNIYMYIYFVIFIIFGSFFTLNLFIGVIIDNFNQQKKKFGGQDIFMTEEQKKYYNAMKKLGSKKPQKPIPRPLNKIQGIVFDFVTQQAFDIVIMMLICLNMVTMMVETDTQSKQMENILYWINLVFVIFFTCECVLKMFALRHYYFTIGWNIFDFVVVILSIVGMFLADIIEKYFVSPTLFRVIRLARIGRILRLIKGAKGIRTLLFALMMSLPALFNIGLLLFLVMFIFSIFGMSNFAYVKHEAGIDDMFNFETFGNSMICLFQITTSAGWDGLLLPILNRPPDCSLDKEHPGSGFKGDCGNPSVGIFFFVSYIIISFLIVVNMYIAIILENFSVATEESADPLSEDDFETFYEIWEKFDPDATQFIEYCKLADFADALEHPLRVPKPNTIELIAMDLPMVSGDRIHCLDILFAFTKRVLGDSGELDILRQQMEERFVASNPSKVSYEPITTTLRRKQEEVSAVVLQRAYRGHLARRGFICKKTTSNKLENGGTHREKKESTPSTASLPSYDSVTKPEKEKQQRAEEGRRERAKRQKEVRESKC
T3 sequence (Q15858 whole entry): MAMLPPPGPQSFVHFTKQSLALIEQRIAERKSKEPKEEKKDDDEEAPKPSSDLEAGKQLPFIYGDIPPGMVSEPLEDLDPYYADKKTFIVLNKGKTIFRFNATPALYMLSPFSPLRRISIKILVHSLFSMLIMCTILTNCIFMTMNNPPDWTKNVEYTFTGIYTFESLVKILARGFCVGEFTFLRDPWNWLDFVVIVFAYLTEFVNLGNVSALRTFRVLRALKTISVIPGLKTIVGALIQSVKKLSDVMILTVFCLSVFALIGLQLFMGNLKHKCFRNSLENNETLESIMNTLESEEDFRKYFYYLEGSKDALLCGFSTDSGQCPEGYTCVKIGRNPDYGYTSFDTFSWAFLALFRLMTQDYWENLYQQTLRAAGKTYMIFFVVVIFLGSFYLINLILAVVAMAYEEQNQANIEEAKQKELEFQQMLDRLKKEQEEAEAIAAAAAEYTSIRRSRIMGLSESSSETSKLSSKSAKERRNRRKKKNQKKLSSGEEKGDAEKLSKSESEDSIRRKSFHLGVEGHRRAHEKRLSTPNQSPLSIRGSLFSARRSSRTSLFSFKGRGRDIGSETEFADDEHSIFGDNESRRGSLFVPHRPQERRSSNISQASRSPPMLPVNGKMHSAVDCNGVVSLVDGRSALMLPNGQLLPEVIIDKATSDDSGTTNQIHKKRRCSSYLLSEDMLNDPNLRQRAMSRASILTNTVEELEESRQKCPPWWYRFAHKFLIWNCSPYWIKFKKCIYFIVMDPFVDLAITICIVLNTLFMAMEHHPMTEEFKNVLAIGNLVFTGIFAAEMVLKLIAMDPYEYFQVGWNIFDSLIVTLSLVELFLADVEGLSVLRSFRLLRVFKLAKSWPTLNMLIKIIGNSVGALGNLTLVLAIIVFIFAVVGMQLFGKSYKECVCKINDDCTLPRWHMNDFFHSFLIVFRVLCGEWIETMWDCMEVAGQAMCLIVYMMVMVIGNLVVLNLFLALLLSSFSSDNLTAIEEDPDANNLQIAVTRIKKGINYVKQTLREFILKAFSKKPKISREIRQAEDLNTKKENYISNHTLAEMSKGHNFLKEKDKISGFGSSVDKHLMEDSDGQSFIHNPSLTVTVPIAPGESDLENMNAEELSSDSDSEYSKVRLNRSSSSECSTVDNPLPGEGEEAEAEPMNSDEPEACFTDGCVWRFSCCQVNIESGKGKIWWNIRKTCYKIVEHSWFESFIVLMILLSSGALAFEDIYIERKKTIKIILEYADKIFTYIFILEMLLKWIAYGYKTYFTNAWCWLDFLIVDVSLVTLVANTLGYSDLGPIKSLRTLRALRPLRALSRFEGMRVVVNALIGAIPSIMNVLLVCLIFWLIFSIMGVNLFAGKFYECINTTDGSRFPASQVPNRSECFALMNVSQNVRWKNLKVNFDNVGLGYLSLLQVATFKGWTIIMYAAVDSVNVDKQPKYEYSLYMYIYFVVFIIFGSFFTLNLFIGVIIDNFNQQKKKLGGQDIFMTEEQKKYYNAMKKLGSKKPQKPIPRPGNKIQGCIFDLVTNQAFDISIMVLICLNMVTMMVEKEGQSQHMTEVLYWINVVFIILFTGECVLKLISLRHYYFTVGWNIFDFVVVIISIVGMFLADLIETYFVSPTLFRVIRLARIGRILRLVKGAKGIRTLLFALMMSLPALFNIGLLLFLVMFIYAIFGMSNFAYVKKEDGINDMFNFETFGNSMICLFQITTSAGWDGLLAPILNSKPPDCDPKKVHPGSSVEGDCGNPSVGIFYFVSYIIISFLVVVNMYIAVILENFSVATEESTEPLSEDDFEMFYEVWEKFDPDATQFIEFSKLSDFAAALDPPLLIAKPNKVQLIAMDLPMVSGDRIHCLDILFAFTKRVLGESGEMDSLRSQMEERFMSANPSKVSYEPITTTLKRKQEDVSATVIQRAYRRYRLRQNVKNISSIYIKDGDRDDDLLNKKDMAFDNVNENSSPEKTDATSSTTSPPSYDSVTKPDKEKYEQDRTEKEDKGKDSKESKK

On to `C#CC[C@H](N)C(=O)N[C@@H](Cc1ccc(O)cc1)C(=O)N[C@H]1CSSC[C@@H]2NC(=O)[C@@H]3CSSC[C@@H](C(=O)N[C@@H](CCCNC(=N)N)C(=O)N[C@@H](CCCCN)C(=O)N[C@H](C(=O)N[C@H](C(N)=O)[C@@H](C)CC)[C@@H](C)CC)NC(=O)[C@H](Cc4c[nH]c5ccccc45)NC(=O)[C@H](CC(C)C)NC(=O)[C@H](CCCCN)NC(=O)[C@H](CSSC[C@H](NC(=O)[C@H]([C@@H](C)O)NC(=O)[C@H](Cc4c[nH]c5ccccc45)NC(=O)[C@H](CCCC)NC(=O)[C@H](Cc4c[nH]c5ccccc45)NC(=O)[C@H](CCCCN)NC(=O)[C@H](CCC(N)=O)NC1=O)C(=O)N[C@@H](CC(=O)O)C(=O)N[C@@H](CO)C(=O)N[C@@H](CCCCN)C(=O)N[C@@H](CCCNC(=N)N)C(=O)N[C@@H](C)C(=O)N3)NC(=O)[C@H](CCC(=O)O)NC(=O)[C@H](CC(C)C)NC(=O)CNC(=O)[C@H](CCC(=O)O)NC2=O` [compound 297], for which the Nav1.5/Nav1.7 at hNav1.5 [1] amounted to 642. For the same compound, the Nav1.4/Nav1.7 at hNav1.4 [2] is given as 431.
For `C#CC[C@H](N)C(=O)NCCCC[C@@H]1NC(=O)[C@H](CCCNC(=N)N)NC(=O)[C@H](CCCCN)NC(=O)[C@H](CO)NC(=O)[C@H](CC(=O)O)NC(=O)[C@@H]2CSSC[C@@H]3NC(=O)[C@H](CCCNC(=N)N)NC(=O)[C@H](CC(C)C)NC(=O)CNC(=O)[C@H](CCC(=O)O)NC(=O)[C@H](CSSC[C@H](NC(=O)[C@H](Cc4ccc(O)cc4)NC(=O)[C@@H](N)CC#N)C(=O)N[C@@H](CCC(N)=O)C(=O)N[C@@H](CCCCN)C(=O)N[C@@H](Cc4c[nH]c5ccccc45)C(=O)N[C@@H](CC(C)C)C(=O)N[C@@H](Cc4c[nH]c5ccccc45)C(=O)N[C@@H]([C@@H](C)O)C(=O)N2)NC(=O)[C@H](CSSC[C@@H](C(=O)N[C@@H](CCCNC(=N)N)C(=O)N[C@@H](CCCCN)C(=O)N[C@@H](CCC(=O)O)C(=O)N[C@H](C(N)=O)[C@@H](C)CC)NC(=O)[C@H](Cc2c[nH]c4ccccc24)NC(=O)[C@H](CC(C)C)NC(=O)[C@H](CCCCN)NC3=O)NC1=O` [compound 449] the same measures were 1038 and 111.
For `CCCC[C@@H]1NC(=O)[C@H](Cc2c[nH]c3ccccc23)NC(=O)[C@H](CCCCN)NC(=O)[C@H](CCC(N)=O)NC(=O)[C@@H](NC(=O)[C@@H](N)Cc2ccc(O)cc2)CSSC[C@@H]2NC(=O)[C@@H]3CSSC[C@@H](C(=O)N[C@@H](CCCNC(=N)N)C(=O)N[C@@H](CCCCN)C(=O)N[C@H](C(=O)N[C@@H](Cc4c[nH]c5ccccc45)C(N)=O)[C@@H](C)CC)NC(=O)[C@H](Cc4c[nH]c5ccccc45)NC(=O)[C@H](CC(C)C)NC(=O)[C@H](CCCCN)NC(=O)[C@H](CSSC[C@H](NC(=O)[C@H]([C@@H](C)O)NC(=O)[C@H](Cc4c[nH]c5ccccc45)NC1=O)C(=O)N[C@@H](CC(=O)O)C(=O)N[C@@H](CO)C(=O)N[C@@H](CCCCN)C(=O)N[C@@H](CCCNC(=N)N)C(=O)N[C@@H](C)C(=O)N3)NC(=O)[C@H](CCC(=O)O)NC(=O)[C@H](CC(C)C)NC(=O)CNC(=O)[C@H](CCCCN=[N+]=[N-])NC2=O` [compound 307], in that order: 83 and 40.
Regarding `CC[C@H](C)[C@H](NC(=O)[C@@H](NC(=O)[C@H](CCCCN)NC(=O)[C@H](CCCNC(=N)N)NC(=O)[C@@H]1CSSC[C@@H]2NC(=O)[C@H](C)NC(=O)[C@H](CCCNC(=N)N)NC(=O)[C@H](CCCCN)NC(=O)[C@H](CO)NC(=O)[C@H](CC(=O)O)NC(=O)[C@@H]3CSSC[C@H](NC(=O)[C@H](CCCNC(=N)N)NC(=O)[C@H](CC(C)C)NC(=O)CNC(=O)[C@H](CCC(=O)O)NC(=O)[C@H](CSSC[C@H](NC(=O)[C@@H](N)Cc4ccc(O)cc4)C(=O)N[C@@H](CCC(N)=O)C(=O)N[C@@H](CCCCN)C(=O)N[C@@H](Cc4c[nH]c5ccccc45)C(=O)N[C@@H](CCSC)C(=O)N[C@@H](CCC(=O)O)C(=O)N[C@@H]([C@@H](C)O)C(=O)N3)NC2=O)C(=O)N[C@@H](CCCCN)C(=O)N[C@@H](CC(C)C)C(=O)N[C@@H](Cc2c[nH]c3ccccc23)C(=O)N1)[C@@H](C)CC)C(N)=O` [compound 54], the half-maximal inhibitory concentration (IC50) on hNav1.7 [3] was 0.56 µM; at hNav1.5 [4], more than 5 µM; on hNav1.4 [5], 2.6 µM; at hNav1.3 it was 2.8 µM. Besides, the Nav1.4/Nav1.7 on hNav1.4 [5] is reported as 5. The negative-log IC50 (pIC50) on hNav1.6 is less than 5.00.
Turning to `CC[C@H](C)[C@H](NC(=O)[C@@H](NC(=O)[C@H](CCCCN)NC(=O)[C@H](CCCNC(=N)N)NC(=O)[C@@H]1CSSC[C@@H]2NC(=O)[C@H](CCC(=O)O)NC(=O)[C@H](CCCNC(=N)N)NC(=O)[C@H](CCCCN)NC(=O)[C@H](CO)NC(=O)[C@H](CC(=O)O)NC(=O)[C@@H]3CSSC[C@H](NC(=O)[C@H](CCCNC(=N)N)NC(=O)[C@H](CC(C)C)NC(=O)CNC(=O)[C@H](CCC(=O)O)NC(=O)[C@H](CSSC[C@H](NC(=O)[C@@H](N)Cc4ccc(O)cc4)C(=O)N[C@@H](CCC(N)=O)C(=O)N[C@@H](CCCCN)C(=O)N[C@@H](Cc4c[nH]c5ccccc45)C(=O)N[C@@H](CCSC)C(=O)N[C@@H](Cc4c[nH]c5ccccc45)C(=O)N[C@@H]([C@@H](C)O)C(=O)N3)NC2=O)C(=O)N[C@@H](CCCCN)C(=O)N[C@@H](CC(C)C)C(=O)N[C@@H](Cc2c[nH]c3ccccc23)C(=O)N1)[C@@H](C)CC)C(N)=O` [compound 60], the half-inhibitory concentration (IC50) on hNav1.7 [3] was 0.02 µM; on hNav1.5 [4], more than 5 µM; on hNav1.4 [5], 0.23 µM; on hNav1.3, 0.11 µM. The Nav1.4/Nav1.7 at hNav1.4 [5] is on record as 12. In addition, the negative-log IC50 (pIC50) on hNav1.6 was 6.84.
As for `CC[C@H](C)[C@H](NC(=O)[C@@H](NC(=O)[C@H](CCCCN)NC(=O)[C@H](CCCNC(=N)N)NC(=O)[C@@H]1CSSC[C@@H]2NC(=O)[C@H](C)NC(=O)[C@H](CCCNC(=N)N)NC(=O)[C@H](CCCCN)NC(=O)[C@H](CO)NC(=O)[C@H](CC(=O)O)NC(=O)[C@@H]3CSSC[C@H](NC(=O)[C@H](CCCNC(=N)N)NC(=O)[C@H](CC(C)C)NC(=O)CNC(=O)[C@H](CCC(=O)O)NC(=O)[C@H](CSSC[C@H](NC(=O)[C@@H](N)Cc4ccc(O)cc4)C(=O)N[C@@H](CCC(N)=O)C(=O)N[C@@H](CCCCN)C(=O)N[C@@H](Cc4c[nH]c5ccccc45)C(=O)N[C@@H](CCSC)C(=O)N[C@@H](Cc4c[nH]c5ccccc45)C(=O)N[C@@H]([C@@H](C)O)C(=O)N3)NC2=O)C(=O)N[C@@H](CCCCN)C(=O)N[C@@H](CCC(=O)O)C(=O)N[C@@H](Cc2c[nH]c3ccccc23)C(=O)N1)[C@@H](C)CC)C(N)=O` [compound 65], the 50% inhibitory concentration (IC50) at hNav1.7 [3] was 4 µM; on hNav1.5 [4] it was more than 5 µM; on hNav1.4 [5] it was more than 5 µM; on hNav1.3, 2 µM. On hNav1.4 [5], the Nav1.4/Nav1.7 came to 1. The negative logarithm of the IC50 (pIC50) on hNav1.6 is 5.02.
Turning to `CC[C@H](C)[C@H](NC(=O)[C@H](CCC(=O)O)NC(=O)[C@H](CCCCN)NC(=O)[C@H](CCCNC(=N)N)NC(=O)[C@@H]1CSSC[C@@H]2NC(=O)[C@H](C)NC(=O)[C@H](CCCNC(=N)N)NC(=O)[C@H](CCCCN)NC(=O)[C@H](CO)NC(=O)[C@H](CC(=O)O)NC(=O)[C@@H]3CSSC[C@H](NC(=O)[C@H](CCCNC(=N)N)NC(=O)[C@H](CC(C)C)NC(=O)CNC(=O)[C@H](CCC(=O)O)NC(=O)[C@H](CSSC[C@H](NC(=O)[C@@H](N)Cc4ccc(O)cc4)C(=O)N[C@@H](CCC(N)=O)C(=O)N[C@@H](CCCCN)C(=O)N[C@@H](Cc4c[nH]c5ccccc45)C(=O)N[C@@H](CCSC)C(=O)N[C@@H](Cc4c[nH]c5ccccc45)C(=O)N[C@@H]([C@@H](C)O)C(=O)N3)NC2=O)C(=O)N[C@@H](CCCCN)C(=O)N[C@@H](CC(C)C)C(=O)N[C@@H](Cc2c[nH]c3ccccc23)C(=O)N1)C(N)=O` [compound 69], the IC50 on hNav1.7 [3] is 0.028 µM; on hNav1.5 [4], more than 5 µM; on hNav1.4 [5] it was 0.83 µM; on hNav1.3, 0.33 µM. The Nav1.4/Nav1.7 at hNav1.4 [5] came to 30; on hNav1.7 [6], 300. Moreover, the pIC50 at hNav1.7 [6] is 9.25; at hNav1.6 it was 6.61. At hNav1.7 [6], the Nav1.5/Nav1.7 is 8800. Also, the Nav1.6/Nav1.7 on hNav1.6 was determined as 437.
For the compound `CC[C@H](C)[C@H](NC(=O)[C@H](CCCCN)NC(=O)[C@H](CCCNC(=N)N)NC(=O)[C@@H]1CSSC[C@@H]2NC(=O)[C@H](C)NC(=O)[C@H](CCCNC(=N)N)NC(=O)[C@H](CCCCN)NC(=O)[C@H](CO)NC(=O)[C@H](CC(=O)O)NC(=O)[C@@H]3CSSC[C@H](NC(=O)[C@H](CCCNC(=N)N)NC(=O)[C@H](CC(C)C)NC(=O)CNC(=O)[C@H](CCC(=O)O)NC(=O)[C@H](CSSC[C@H](NC(=O)[C@@H](N)Cc4ccc(O)cc4)C(=O)N[C@@H](CCC(N)=O)C(=O)N[C@@H](CCCCN)C(=O)N[C@@H](Cc4c[nH]c5ccccc45)C(=O)N[C@@H](CCSC)C(=O)N[C@@H](Cc4c[nH]c5ccccc45)C(=O)N[C@@H]([C@@H](C)O)C(=O)N3)NC2=O)C(=O)N[C@@H](CCCCN)C(=O)N[C@@H](CC(C)C)C(=O)N[C@@H](Cc2c[nH]c3ccccc23)C(=O)N1)C(=O)N[C@@H](CCC(=O)O)C(N)=O` [compound 70], the concentration for half-maximal inhibition (IC50) on hNav1.7 [3] is 0.28 µM; at hNav1.5 [4], more than 5 µM; on hNav1.4 [5], more than 5 µM; at hNav1.3, 5 µM. Further, the Nav1.4/Nav1.7 at hNav1.4 [5] was determined as 18; at hNav1.7 [6], 43. Moreover, the pIC50 was 6.58 on hNav1.7 [6] and less than 5.00 at hNav1.6. The Nav1.5/Nav1.7 at hNav1.7 [6] is more than 38. On hNav1.6, the Nav1.6/Nav1.7 is more than 38.
